Consider 13 compounds from patent US8889854B2, “C-17 bicyclic amines of triterpenoids with HIV maturation inhibitory activity” (priority 2012, dated 2014).

One may read the EC50 as the midpoint of the concentration-response curve.

SMILES strings stand for the structures. Some results are limits rather than exact numbers.

One assay deals with recombinant NL4-3 virus (Renilla luciferase in nef, Gag P373S; NLRluc). As to the kind of experiment: HIV Cell Culture Assay (luciferase reporter virus in MT-2 cells). The following applies: Renilla, NL43, MT-2 cells infected for 4-5 days with NLRluc recombinants; luciferase activity. It is filed as cell-based. On the procedure: MT-2 cells and 293T cells were obtained from the NIH AIDS Research and Reference Reagent Program. MT-2 cells were propagated in RPMI 1640 media supplemented with 10% heat inactivated fetal bovine serum, […]. The 293T cells were propagated in DMEM media supplemented with 10% heat inactivated fetal bovine serum (FBS), 100 units/mL penicillin G and 100 μg/mL streptomycin. The proviral DNA clone of NL4-3 was obtained from the NIH AIDS Research and Reference Reagent Program. A recombinant NL4-3 virus, in which a section of the nef gene from NL4-3 was replaced with the Renilla luciferase gene, was used as a reference virus. In addition, residue Gag P373 was converted to P373S. Briefly, the recombinant virus was prepared by transfection of the altered proviral clone of NL4-3. Transfections were performed in 293T cells using LipofectAMINE PLUS from Invitrogen (Carlsbad, Calif.), according to manufacturer's instruction. The virus was titered in MT-2 cells using luciferase enzyme activity as a marker. Luciferase was quantitated using the Dual Luciferase kit from Promega (Madison, Wis.), with modifications to the manufacturer's protocol. The diluted Passive Lysis solution was pre-mixed with the re-suspended Luciferase Assay Reagent and the re-suspended Stop & Glo Substrate (2:1:1 ratio). Fifty (50) μL of the mixture was added to each aspirated well on assay plates and luciferase activity was measured immediately on a Wallac TriLux (Perkin-Elmer). Antiviral activities of inhibitors toward the recombinant virus were quantified by measuring luciferase activity in cells infected for 4-5 days with NLRluc recombinants in the presence serial dilutions of the inhibitor. Table 1 is the key for the data in Table 2.
For orientation: Reporter assays use an easily measured gene product as a stand-in for the process of interest.
Regarding `C=C(C)[C@@H]1CC[C@]2(NCCN3C[C@H]4C[C@@H](C3)N4S(C)(=O)=O)CC[C@]3(C)[C@H](CC[C@@H]4[C@@]5(C)CC=C(c6ccc(C(=O)O)cc6)C(C)(C)[C@@H]5CC[C@]43C)[C@@H]12` [Example 14, 4-((1R,3aS,5aR,5bR,7aR,11aS,11bR,13aR,13bR)-5a,5b,8,8,11a-pentamethyl-3a-((2-((1R,5S)-6-(methylsulfonyl)-3,6-diazabicyclo[3.1.1]heptan-3-yl)ethyl)amino)-1-(prop-1-en-2-yl)-2,3,3a,4,5,5a,5b,6,7,7a,8,11,11a,11b,12,13,13a,13b-octadecahydro-1H-cyclopenta[a]chrysen-9-yl)benzoic acid], the EC50 worked out at 3.24 nM. Same read-out and setting: the result for `C=C(C)[C@@H]1CC[C@]2(NCCN3CCC4(C3)CN(S(C)(=O)=O)C4)CC[C@]3(C)[C@H](CC[C@@H]4[C@@]5(C)CC=C(c6ccc(C(=O)O)cc6)C(C)(C)[C@@H]5CC[C@]43C)[C@@H]12` [Example 15, 4-((1R,3aS,5aR,5bR,7aR,11aS,11bR,13aR,13bR)-5a,5b,8,8,11a-pentamethyl-3a-((2-(2-(methylsulfonyl)-2,6-diazaspiro[3.4]octan-6-yl)ethyl)amino)-1-(prop-1-en-2-yl)-2,3,3a,4,5,5a,5b,6,7,7a,8,11,11a,11b,12,13,13a,13b-octadecahydro-1H-cyclopenta[a]chrysen-9-yl)benzoic acid] reads 1.65 nM; that for `C=C(C)[C@@H]1CC[C@]2(NCCN3CC4(C3)CN(S(C)(=O)=O)C4)CC[C@]3(C)[C@H](CC[C@@H]4[C@@]5(C)CC=C(c6ccc(C(=O)O)cc6)C(C)(C)[C@@H]5CC[C@]43C)[C@@H]12` [Example 16, 4-((1R,3aS,5aR,5bR,7aR,11aS,11bR,13 aR,13bR)-5a,5b,8,8,11a-pentamethyl-3a-((2-(6-(methylsulfonyl)-2,6-diazaspiro[3.3]heptan-2-yl)ethyl)amino)-1-(prop-1-en-2-yl)-2,3,3a,4,5,5a,5b,6,7,7a,8,11,11a,11b,12,13,13a,13b-octadecahydro-1H-cyclopenta[a]chrysen-9-yl)benzoic acid], 1.64 nM; that for `C=C(C)[C@@H]1CC[C@]2(NCCN3[C@@H]4CCC[C@H]3COC4)CC[C@]3(C)[C@H](CC[C@@H]4[C@@]5(C)CC=C(c6ccc(C(=O)O)cc6)C(C)(C)[C@@H]5CC[C@]43C)[C@@H]12` [Example A1, 4-((1R,3aS,5aR,5bR,7aR,11aS,11bR,13aR,13bR)-3a-((2-((1R,5S)-3-oxa-9-azabicyclo[3.3.1]nonan-9-yl)ethyl)amino)-5a,5b,8,8,11a-pentamethyl-1-(prop-1-en-2-yl)-2,3,3a,4,5,5a,5b,6,7,7a,8,11,11a,11b,12,13,13a,13b-octadecahydro-1H-cyclopenta[a]chrysen-9-yl)benzoic acid], 30 nM. On the same count and under the same terms, the result for `C=C(C)[C@@H]1CC[C@]2(NCCN3CC4CCC(C3)O4)CC[C@]3(C)[C@H](CC[C@@H]4[C@@]5(C)CC=C(c6ccc(C(=O)O)cc6)C(C)(C)[C@@H]5CC[C@]43C)[C@@H]12` [Example A2, 4-((1R,3aS,5aR,5bR,7aR,11aS,11bR,13aR,13bR)-3a-((2-(8-oxa-3-azabicyclo[3.2.1]octan-3-yl)ethyl)amino)-5a,5b,8,8,11a-pentamethyl-1-(prop-1-en-2-yl)-2,3,3a,4,5,5a,5b,6,7,7a,8,11,11a,11b,12,13,13a,13b-octadecahydro-1H-cyclopenta[a]chrysen-9-yl)benzoic acid] reads 71 nM. The same measure, in the same setting: with `C=C(C)[C@@H]1CC[C@]2(NCCN3C4COCC3COC4)CC[C@]3(C)[C@H](CC[C@@H]4[C@@]5(C)CC=C(c6ccc(C(=O)O)cc6)C(C)(C)[C@@H]5CC[C@]43C)[C@@H]12` [Example A3, 4-((1R,3aS,5aR,5bR,7aR,11aS,11bR,13aR,13bR)-3a-((2-((1R,5R)-3,7-dioxa-9-azabicyclo[3.3.1]nonan-9-yl)ethyl)amino)-5a,5b,8,8,11a-pentamethyl-1-(prop-1-en-2-yl)-2,3,3a,4,5,5a,5b,6,7,7a,8,11,11a,11b,12,13,13a,13b-octadecahydro-1H-cyclopenta[a]chrysen-9-yl)benzoic acid] the figure was 83 nM; with `C=C(C)[C@@H]1CC[C@]2(NCCN3C4CCC3CC(C)(O)C4)CC[C@]3(C)[C@H](CC[C@@H]4[C@@]5(C)CC=C(c6ccc(C(=O)O)cc6)C(C)(C)[C@@H]5CC[C@]43C)[C@@H]12` (stereo partly drawn) [Example A4, 4-((1R,3aS,5aR,5bR,7aR,11aS,11bR,13aR,13bR)-3a-((2-((1R,3S,5S)-3-hydroxy-3-methyl-8-azabicyclo[3.2.1]octan-8-yl)ethyl)amino)-5a,5b,8,8,11a-pentamethyl-1-(prop-1-en-2-yl)-2,3,3a,4,5,5a,5b,6,7,7a,8,11,11a,11b,12,13,13a,13b-octadecahydro-1H-cyclopenta[a]chrysen-9-yl)benzoic acid], 8.8 nM.

Still in this assay, the particulars now being: Renilla, NL43, MT-2 cells infected for 4-5 days with NLRluc recombinants; luciferase activity; reported as group A/B.
`C=C(C)[C@@H]1CC[C@]2(NCCN3C[C@@H]4C[C@H]3CN4S(C)(=O)=O)CC[C@]3(C)[C@H](CC[C@@H]4[C@@]5(C)CC=C(c6ccc(C(=O)O)cc6)C(C)(C)[C@@H]5CC[C@]43C)[C@@H]12` [Example 11, 4-((1R,3aS,5aR,5bR,7aR,11aS,11bR,13aR,13bR)-5a,5b,8,8,11a-pentamethyl-3a-((2-((1S,4S)-5-(methylsulfonyl)-2,5-diazabicyclo[2.2.1]heptan-2-yl)ethyl)amino)-1-(prop-1-en-2-yl)-2,3,3a,4,5,5a,5b,6,7,7a,8,11,11a,11b,12,13,13a,13b-octadecahydro-1H-cyclopenta[a]chrysen-9-yl)benzoic acid]: the half-maximal effective concentration (EC50) is less than 100 nM.

On to `CC(C)[C@@H]1CC[C@]2(NCCN3C[C@@H]4C[C@H]3CN4S(C)(=O)=O)CC[C@]3(C)[C@H](CC[C@@H]4[C@@]5(C)CC=C(c6ccc(C(=O)O)cc6)C(C)(C)[C@@H]5CC[C@]43C)[C@@H]12` [Example 12, 4-((1S,3aS,5aR,5bR,7aR,11aS,11bR,13aR,13bR)-1-isopropyl-5a,5b,8,8,11a-pentamethyl-3a-((2-((1S,4S)-5-(methylsulfonyl)-2,5-diazabicyclo[2.2.1]heptan-2-yl)ethyl)amino)-2,3,3a,4,5,5a,5b,6,7,7a,8,11,11a,11b,12,13,13a,13b-octadecahydro-1H-cyclopenta[a]chrysen-9-yl)benzoic acid], for which the EC50 was less than 100 nM. Still for that read-out and setting: the result for `C=C(C)[C@@H]1CC[C@]2(NCCN3C[C@H]4CC[C@@H](C3)N4C(=O)OC(C)(C)C)CC[C@]3(C)[C@H](CC[C@@H]4[C@@]5(C)CC=C(c6ccc(C(=O)O)cc6)C(C)(C)[C@@H]5CC[C@]43C)[C@@H]12` [Example 13, 4-((1R,3aS,5aR,5bR,7aR,11aS,11bR,13aR,13bR)-3a-((2-((1R,5S)-8-(tert-butoxycarbonyl)-3,8-diazabicyclo[3.2.1]octan-3-yl)ethyl)amino)-5a,5b,8,8,11a-pentamethyl-1-(prop-1-en-2-yl)-2,3,3a,4,5,5a,5b,6,7,7a,8,11,11a,11b,12,13,13a,13b-octadecahydro-1H-cyclopenta[a]chrysen-9-yl)benzoic acid] reads greater than 100 nM; that for `C=C(C)[C@@H]1CC[C@]2(NCCN3CC4C(C3)C4NS(C)(=O)=O)CC[C@]3(C)[C@H](CC[C@@H]4[C@@]5(C)CC=C(c6ccc(C(=O)O)cc6)C(C)(C)[C@@H]5CC[C@]43C)[C@@H]12` (stereo partly drawn) [Example 17, 4-((1R,3aS,5aR,5bR,7aR,11aS,11bR,13aR,13bR)-5a,5b,8,8,11a-pentamethyl-3a-((2-(6-(methylsulfonamido)-3-azabicyclo[3.1.0]hexan-3-yl)ethyl)amino)-1-(prop-1-en-2-yl)-2,3,3a,4,5,5a,5b,6,7,7a,8,11,11a,11b,12,13,13a,13b-octadecahydro-1H-cyclopenta[a]chrysen-9-yl)benzoic acid], less than 100 nM. For `C=C(C)[C@@H]1CC[C@]2(NCCN3C[C@H]4C[C@@H]3CS4(=O)=O)CC[C@]3(C)[C@H](CC[C@@H]4[C@@]5(C)CC=C(c6ccc(C(=O)O)cc6)C(C)(C)[C@@H]5CC[C@]43C)[C@@H]12` [Example 18, 4-((1R,3aS,5aR,5bR,7aR,11aS,11bR,13aR,13bR)-3a-((2-((1R,4R)-2,2-dioxido-2-thia-5-azabicyclo[2.2.1]heptan-5-yl)ethyl)amino)-5a,5b,8,8,11a-pentamethyl-1-(prop-1-en-2-yl)-2,3,3a,4,5,5a,5b,6,7,7a,8,11,11a,11b,12,13,13a,13b-octadecahydro-1H-cyclopenta[a]chrysen-9-yl)benzoic acid], the concentration for a half-maximal effect (EC50) is less than 100 nM. The same measure, in the same setting: the result for `C=C(C)[C@@H]1CC[C@]2(NCCN3CC4CC3CO4)CC[C@]3(C)[C@H](CC[C@@H]4[C@@]5(C)CC=C(C6=CCC(C(=O)O)CC6)C(C)(C)[C@@H]5CC[C@]43C)[C@@H]12` (stereo partly drawn) [Example B1, 4-((1R,3aS,5aR,5bR,7aR,11aS,11bR,13aR,13bR)-3a-((2-(2-oxa-5-azabicyclo[2.2.1]heptan-5-yl)ethyl)amino)-5a,5b,8,8,11a-pentamethyl-1-(prop-1-en-2-yl)-2,3,3a,4,5,5a,5b,6,7,7a,8,11,11a,11b,12,13,13a,13b-octadecahydro-1H-cyclopenta[a]chrysen-9-yl)cyclohex-3-enecarboxylic acid] reads less than 100 nM.
